Laboratory results taken from patent publication US9770448B1, “Compositions and methods for treatment of Bowen's disease and related diseases” (priority 2016, dated 2017).

Key:
[1] = test system: HPV+ laryngeal keratinocytes; assay: In vitro chloroquine-induced killing of laryngeal keratinocytes (HPV+); type: cell-based, human; conditions: two days incubation, visual inspection for survival
Source text: (§1) In addition to the foregoing examples, in vitro experimental data have been obtained which indicate that the compositions and methods of the present disclosure can be used in the treatment of recurrent respiratory papillomatosis (RRPRRP) disease, which is also known as laryngeal papillomatosis. RRP is caused by human papillomavirus (HPV), typically HPV6 and HPV11, and involves formation of generally nonmalignant tumors on the larynx or vocal chords, and can spread to the trachea, bronchi and lungs. HPV^+ and HPV^− laryngeal keratinocytes obtained from a recurrent respiratory papillomatosis patient were expanded on Mitomycin C-treated J2 3T3 feeder cell layers in E media with 10 uM Y27632 (ROCK inhibitor). These cells were then plated without feeder layers in 2.5 uM Y27632 and grown until they reached 90% confluency. At this point, fresh E media without Y27632 was added to the cells with increasing concentrations of chloroquine. Chloroquine concentrations used were 0 ug/ml, 2.5 ug/ml, 25 ug/ml, 250 ug/ml, 2.5 mg/ml and 25 mg/ml. Chloroquine powder (Sigma) was resuspended at 25 mg/ml in E media and was brought to pH 7 with 1N NaOH. Working dilutions were made with full E media. Cells were incubated for two days in chloroquine and then visually inspected for survival, as noted by (a) the presence of cells in the wells and (b) morphology of the cells.

[2] = test system: HPV- laryngeal keratinocytes; assay: In vitro chloroquine-induced killing of laryngeal keratinocytes (HPV-); type: cell-based, human; conditions: two days incubation, visual inspection for survival
Source text: as §1

[3] = test system: Bowen's disease; conditions: Example 10 patient history; cited from earlier work

SMILES | Chloroquine concentration that cells survived [1] [µg/mL] | Chloroquine concentrations at which cells were killed [1] [µg/mL] | Chloroquine concentration that cells survived [2] [µg/mL] | Chloroquine concentrations at which cells were killed [2] [µg/mL] | Outcome of earlier over the counter drug as stated by patient [3]
CCN(CC)CCCC(C)Nc1ccnc2cc(Cl)ccc12 (racemic) [chloroquine, (RS)—N′-(7-chloroquinolin-4-yl)-N,N-diethyl-pentane-1,4-diamine] | 25 | ≥ 250 | 25 | ≥ 250 | –
O=C(O)C(Cl)(Cl)Cl [TCA, trichloroacetic acid] | – | – | – | – | made the Bowen's disease Lesion worse
